Data as given in the NIST ThermoML archive (doi:10.1016/j.jct.2014.08.010).
± gives the expanded uncertainty stated by the source.

Columns and labels:
[1] = DTA
[2] = Molar enthalpy of transition or fusion; conditions: DSC

| Structure (SMILES) | Triple point temperature ([1]; Crystal) | Triple point temperature ([1]; Nematic liquid crystal) | Molar enthalpy of transition or fusion ([2]; Crystal) | Molar enthalpy of transition or fusion ([2]; Nematic liquid crystal) |
| --- | --- | --- | --- | --- |
| CCCCCCCc1ccc(-c2ccc(C#N)cc2)cc1 [4'-heptyl-4-biphenylcarbonitrile] | 305.15 ± 0.5 K | 316.15 ± 0.5 K | 5.82 ± 0.172 kcal/mol | 0.198 ± 0.0382 kcal/mol |
| CCCCCc1ccc(-c2ccc(C#N)cc2)cc1 [4'-n-pentyl-4-biphenylcarbonitrile] | 297.55 ± 0.5 K | 308.65 ± 0.5 K | 3.26 ± 0.108 kcal/mol | 0.117 ± 0.0359 kcal/mol |
